Experimental data taken from paper PMC3527734, “Peripheral injections of melanin-concentrating hormone receptor 1 antagonist S38151 decrease food intake and body weight in rodent obesity models” (Frontiers in Endocrinology, 2012).
Where two headings read alike, the source gives them in different places. Where a SMILES comes first, the peptide text is derived from it.

Legend:
MCH1 = conditions: ref Audinot et al., 2009, cited from earlier work; for Kb: full antagonist, CHO cells over-expressing MCH1
Excerpt: S38151 was synthesized during a process that was attempting to find peptides or pseudopeptides with affinity at MCH1 receptor that also had greater stability in biological media. This pseudopeptide is derived from another, very similar agonist, pGua (MCH7-17) (Audinot et al., [2001a], [2009]). […] This activity was specific to MCH1, since it ...

Wistar rats = assay: NEI-MCH-induced food intake after acute i.c.v. injection; assay type: in vivo, rat
Excerpt: Wistar and Zucker fa/fa rats were anesthetized with Forène (Abbott Laboratories, Queenborough, UK), and a stainless steel guide cannula (Plastic Products Co, Roanoke, Va, USA) was stereotaxically implanted into the right lateral ventricle at the following coordinates relative to the bregma: AP −0.8 mm, L = −1.2 mm, and V = −3.5 mm. After a 7-day recovery period, during which the animals were handled each day to minimize non-specific stress, they were lightly anesthetized with Forène. Human/mouse/rat MCH (1 μg in a volume of 2.5 μ L, Bachem, Voisins-le-Bretonneux, France) or an equivalent volume of artificial cerebrospinal fluid (CSF) was then injected through the intraventricular cannula. Immediately after injection, the animals quickly recovered and were returned to their home cages. Only those animals responding within 2 h with a robust increase in food intake, indicating correct cannula placement, were used in the experiments described below. Two days after MCH injection, the rats were randomly assigned to different groups and studied in one of the following protocols.
Wistar rats were habituated for at least 2 weeks before experiment to a diet of food pellets (6 mm diameter) of the following composition: 67.5% food flour, 26.5% sucrose, 5% gum tragacanth, and 1.25% magnesium stearate (A03 UAR, Orge, France). The food pellets were present in a metal food hopper attached to the inside of each cage. At 09:00 on the day of study, the animals were lightly anesthetized with Forene® (Abbott, France). Thereafter, rats were injected intra-cerebroventricular (i.c.v.) with vehicle (artificial CSF) or with S38151 [0.5, 5, 10, 20, 30, or 50 nmol/kg ([…], 14, 28, 42, or 70 μg/kg, respectively)] in a volume of 2.5 μL, 20 min prior to the injection of human/rat NEI-MCH [5 nmol/kg (18.7 μg/kg) in a volume of 2.5 μL].
Food intake was measured at different times after peptide injection. Food spillage was carefully quantified during each time period, and intake measurements were corrected for this loss. At the end of the experiments, the animals were euthanized and the positions of the cannulae were assessed by the injection of 100 μ L Evans blue dye (2 mg/mL) followed by the visual examination of brain slices. Only data obtained from animals with correctly positioned cannulae were included in the final data analysis.
Figure 3 The effect of S38151 on NEI-MCH-induced food intake in Wistar rats after acute central administration. Satiated rats were injected (i.c.v.) at the beginning of the light phase with 5 μg NEI-MCH, 5 μg NEI-MCH + differing doses of S38151 (0.5–50 nmol/kg), or an equivalent volume of artificial cereblospinal fluid vehicle (5 μL). Cumulative food intake was measured at 1, 2, 4, 6, and 24 h post-injection.

[1] = detection of compound in brain of treated animals; assay type: in vivo; conditions: brains from S38151-treated (i.p.-injected) animals, LC-MS/MS, data not shown
Experimental: First, S38151 was incubated for 16 h at 4°C and 37°C in mouse plasma or in TRIS buffer (pH 7.4). Next, plasma proteins were precipitated with two volumes of acetonitrile. After centrifugation and dilution with a water/acetonitrile mixture (50/50 v/v), the supernatant was injected onto a triple quadripole mass spectrometer (Ultima, Micromass WATERS Corporation, Milford, USA). The liquid chromatographic system consisted of an Agilent 1100 analytic pump (Agilent, Santa Clara, USA) equipped with an Alpha Mos CTC autosampler (Alpha Mos, Toulouse, France). Mass detection was performed using the m/z transition 743.5 > 163, in positive electrospray. A second stability study was performed at a lower concentration (1 μM) and for 4 h, with the following sampling times: 0, 15, 45, 90, and 240 min. At each sampling time, 50 μL of plasma were precipitated with two volumes of acetonitrile, and after centrifugation were directly injected onto the LC-MS/MS system. The same treatment was used for the buffer samples.
Furthermore, we were unable to detect traces of this pseudopeptide in the brains of i.p.-injected animals. Similarly, its effect could not be correlated with aversion owing to a bad test.

Zucker fa/fa rats = conditions: cyclophosphamide 100 mg/kg i.p., S38151 20 nmol/kg (28 μg/kg) i.c.v., n = 8
Experimental: These experiments were performed with modifications to previously described methods (Madden et al., [1999]). Rats were individually housed in wire-bottomed plastic cages with free access to both food pellets (6 mm diameter A03 UAR) and kaolin powder. The food pellets were presented in a small porcelain bowl on the floor of the cage. The kaolin powder was presented in a metal feeding dish attached to the inside of the cage. After a 2-week habituation period to these conditions, the animals were randomized into five treatment groups based on the quantity of food eaten during the stabilization period. In addition, those rats that consistently spilled the kaolin powder were eliminated from the study. One day after randomization, the animals were injected just before the beginning of the dark phase with either cyclophosphamide (100 mg/kg, i.p.), or S38151 [20 nmol/kg (28 μg/kg) i.c.v.] or vehicle [(artificial CSF) i.c.v.]. After injection, the quantity of kaolin and food ingested during the following 24-h period was determined. Food or kaolin spilled by the animals was collected at the end of the experiment, and total food and kaolin intake measurements were corrected for this loss.
Figure 5 The effects of S38151 on conditioned taste aversion and pica in Zucker fa/fa rats. (A) In the conditioned taste aversion test, after a period of habituation of the animals to the experimental protocol, Zucker fa/fa rats were presented with 0.2% saccharine for 20 min after drinking water was removed from their cages for 18 h (test day 0). Animals were then injected (i.p.) with vehicle or lithium chloride, or with S38151 (20 nmol/kg, i.c.v). On test days 4, 7, 11, and 14, rats were presented with 0.2% saccharine, and the quantity consumed during a 20-min period was determined. Results are expressed as mean ± SEM (n = 10–11 rats per group). […] (B) In the pica test, Zucker fa/fa rats were injected (i.c.v.) with 20 nmol/kg S38151, or an equivalent volume of artificial cerebrospinal fluid vehicle. Food and kaolin intake during the following 24-h period were each measured. Results are expressed as mean ± SEM (n = 8 rats per group).

In the case of CSCC[C@@H]1NC(=O)[C@@H](NC(=O)c2ccc(NC(=N)N)cc2)CSSC[C@@H](C(=O)N[C@@H](Cc2c[nH]c3ccccc23)C(=O)O)NC(=O)[C@@H]2CCCN2C(=O)[C@H](CCCNC(=N)N)NC(=O)[C@H](Cc2ccc(O)cc2)NC(=O)[C@H](C(C)C)NC(=O)[C@H](CCCNC(=N)N)NC(=O)[C@H](CC(C)C)NC1=O [S38151, p-guanidinobenzoyl-(Des-Gly10)-MCH (7–17)] (HELM PEPTIDE1{[N=C(N)Nc1ccc(C(=O)[*:2])cc1].C.M.L.R.V.Y.R.P.C.W}$PEPTIDE1,PEPTIDE1,2:R3-10:R3$$$V2.0; C-terminus assumed), the Ki (MCH1; [125I]-S36057 binding, Chinese hamster ovary cells over-expressing MCH1) is listed as 80 nM, the Kb (MCH1; read-out: KB, GTPγS binding assay) is listed as 4.3 nM and the Kb (MCH1; read-out: KB, calcium flux assay) is listed as 210 nM. The “food intake during the entire 24-h period versus control group” value (Wistar rats; NEI-MCH alone or any combination of NEI-MCH and S38151, i.c.v.) was “not significantly altered”, the “inhibition of NEI-MCH-induced food intake” value (Wistar rats; S38151 50 nmol/kg i.c.v.) was “Nearly complete inhibition” and the “inhibition of the increase in food intake produced by NEI-MCH” value (Wistar rats; S38151 0.5-50 nmol/kg i.c.v. 20 min before NEI-MCH, first and second hours) was “statistically significant dose-related inhibition”. The “amount of compound detectable in the brain” value [1] was “none was detected”, the “kaolin intake, 24 h, pica test” value (Zucker fa/fa rats; vehicle 0.05 ± 0.01 g) was “did not significantly alter” and the “food intake, 24 h, pica test” value (Zucker fa/fa rats; vehicle 27 ± 1 g) was “significantly reduced”.
